Peptide text beside a SMILES is read from it.
Key:
white mongrel rats = conditions: rat, in vivo
white mongrel male mice = assay: Acute toxicity, Kerber's method, single intramuscular dose

N[C@@H](CCC(=O)O)C(=O)N[C@@H](Cc1c[nH]c2ccccc12)C(=O)O [L-Glu-L-Trp, L-glutamic-L-tryptophan acid] (H-Glu-Trp-OH; N-terminus and C-terminus assumed)
Side effects from long-term administration (white mongrel rats): absence of side effects
Acute toxic reactions (white mongrel male mice; doses exceeding the therapeutic dose by several thousand times): does not cause acute toxic reactions
Death of animals (white mongrel male mice; mice, single i.m. 1, 2, 3, 4, 5 mg/kg, within 72 hours and further 14 days): Death of animals did not take place in any of the groups

Reference: patent US11083770B2, “Medical preparation and method for enhancing tissue oxygenation in case of diabetic foot” (priority 2017, dated 2021)
